Source: the supplement of paper PMC12317010
Counter-ions that a name gives are not always drawn.

Assay: collision cross section in nitrogen (drift tube, single-field); higher = larger gas-phase ion size
[1] = ion type: [M+H], ion source: APCI, ion mode: Positive
[2] = ion type: [M-H], ion source: ESI, ion mode: Negative
[3] = ion type: [M+H], ion source: ESI, ion mode: Positive
[4] = ion type: [M+Na], ion source: ESI, ion mode: Positive
[5] = ion source: APCI, ion mode: Positive, ion type: [M]+ (permanent cation)
[6] = ion source: ESI, ion mode: Positive, ion type: [M]+ (permanent cation)
[7] = ion type: [M+], ion source: APCI, ion mode: Positive
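Also: chemical standards at 10 µM analysed by drift tube IMS-QTOF MS in about 3.95 torr nitrogen, mean of duplicate injections differing ≤1%, mass error below 10 ppm.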

In the case of `c1ccc2cc(Nc3ccc(Nc4ccc5ccccc5c4)cc3)ccc2c1` [N,N'-Di-2-naphthyl-p-phenylenediamine], the “collision cross section in nitrogen” value [1] is reported as 201.9 Å² and the “collision cross section in nitrogen” value [2] is reported as 203.8 Å².

With `CCCCNC(=S)NCCCC` [N,N'-Dibutylthiourea] the “collision cross section in nitrogen” value [1] was 148.6 Å², the “collision cross section in nitrogen” value [3] was 148.8 Å² and the “collision cross section in nitrogen” value [2] was 148.4 Å².

With `CCCCNC(=O)NCCCC` [N,N'-Dibutylurea] the “collision cross section in nitrogen” value [1] was 146.3 Å², the “collision cross section in nitrogen” value [3] was 146 Å² and the “collision cross section in nitrogen” value [4] was 164.2 Å².

In the case of `S=C(NC1CCCCC1)NC1CCCCC1` [N,N'-Dicyclohexylthiourea], the “collision cross section in nitrogen” value [1] is reported as 163 Å², the “collision cross section in nitrogen” value [3] is reported as 162.9 Å² and the “collision cross section in nitrogen” value [2] is reported as 165.7 Å².

In the case of `C=CC(=O)NCNC(=O)C=C` [N,N'-Methylenebisacrylamide], the “collision cross section in nitrogen” value [4] is reported as 138.1 Å².

For `Cc1ccc(N(C)C)cc1` [N,N,4-Trimethylaniline], the “collision cross section in nitrogen” value [4] was 128.2 Å².

For `CCCCN(CCCC)CCCCCCN(CCCC)CCCC` [N,N,N',N'-Tetrabutyl-1,6-hexanediamine], the “collision cross section in nitrogen” value [3] was 193.6 Å².

For `CCCCCCCCCCCCCCCCCC[N+](C)(C)C` [N,N,N-Trimethyloctadecan-1-aminium chloride], the “collision cross section in nitrogen” value [5] was 200.2 Å² and the “collision cross section in nitrogen” value [6] was 200.7 Å².

With `CCCC[N+](C)(CCCC)CCCC` [N,N-Dibutyl-N-methylbutan-1-aminium chloride] the “collision cross section in nitrogen” value [5] was 153.8 Å² and the “collision cross section in nitrogen” value [6] was 154.5 Å².

In the case of `c1ccc2sc(SN(C3CCCCC3)C3CCCCC3)nc2c1` [N,N-Dicyclohexyl-2-benzothiazolesulfenamide], the “collision cross section in nitrogen” value [1] is reported as 186.2 Å², the “collision cross section in nitrogen” value [3] is reported as 185.8 Å² and the “collision cross section in nitrogen” value [4] is reported as 193.7 Å².

In the case of `CCN(CC)c1ccccc1` [N,N-Diethylaniline], the “collision cross section in nitrogen” value [4] is reported as 132.8 Å².

With `CCCCCCCCCCCC(=O)N(CC)CC` [N,N-Diethyldodecanamide] the “collision cross section in nitrogen” value [1] was 179.7 Å², the “collision cross section in nitrogen” value [3] was 179.1 Å² and the “collision cross section in nitrogen” value [4] was 179.4 Å².

With `CN(C)c1ccc(N=O)cc1` [N,N-Dimethyl-4-nitrosoaniline] the “collision cross section in nitrogen” value [1] was 128.7 Å² and the “collision cross section in nitrogen” value [3] was 128.4 Å².

With `CN(C)c1ccccc1` [N,N-Dimethylaniline] the “collision cross section in nitrogen” value [4] was 123.8 Å².

For `CCCCCCCCCC[N+](C)(C)[O-]` [N,N-Dimethyldecylamine oxide], the “collision cross section in nitrogen” value [3] was 164.1 Å² and the “collision cross section in nitrogen” value [4] was 166.7 Å².

In the case of `CCCCCCCCCCCC[N+](C)(C)[O-]` [N,N-Dimethyldodecylamine-N-oxide], the “collision cross section in nitrogen” value [1] is reported as 175.3 Å², the “collision cross section in nitrogen” value [3] is reported as 174.4 Å² and the “collision cross section in nitrogen” value [4] is reported as 170.8 Å².

For `CCCCCCCC(=O)N(C)C` [N,N-Dimethyloctanamide], the “collision cross section in nitrogen” value [1] was 146.6 Å² and the “collision cross section in nitrogen” value [3] was 146.8 Å².

With `CN(C)c1ccncc1` [N,N-dimethylpyridin-4-amine] the “collision cross section in nitrogen” value [1] was 120.6 Å² and the “collision cross section in nitrogen” value [3] was 120.5 Å².

With `CCC(CC)Nc1ccc(C)c(C)c1` [N-(1-Ethylpropyl)-3,4-xylidine] the “collision cross section in nitrogen” value [4] was 151.1 Å².

With `CCCCCCC(C)Nc1ccc(Nc2ccccc2)cc1` (stereo not drawn) [N-(1-Methylheptyl)-N'-phenyl-1,4-benzenediamine] the “collision cross section in nitrogen” value [4] was 190 Å².

With `CC(=O)CC(=O)Nc1ccc(C)cc1C` [N-(2,4-Dimethylphenyl)-3-oxobutanamide] the “collision cross section in nitrogen” value [1] was 147.7 Å², the “collision cross section in nitrogen” value [4] was 160.6 Å² and the “collision cross section in nitrogen” value [2] was 148.8 Å².

In the case of `CC(=O)Nc1ccc(C)cc1C` [N-(2,4-Dimethylphenyl)acetamide], the “collision cross section in nitrogen” value [3] is reported as 136.2 Å².

In the case of `Cc1ccc(NC=O)c(C)c1` [N-(2,4-Dimethylphenyl)formamide], the “collision cross section in nitrogen” value [2] is reported as 133.8 Å².

In the case of `COc1ccc(OC)c(NC(=O)CC(C)=O)c1` [N-(2,5-Dimethoxyphenyl)-3-oxobutanamide], the “collision cross section in nitrogen” value [4] is reported as 159.2 Å² and the “collision cross section in nitrogen” value [2] is reported as 154.4 Å².

For `O=C(Nc1ccc2c(c1)Cc1ccccc1-2)C(F)(F)F` [N-(2-Fluorenyl)-2,2,2-trifluoroacetamide], the “collision cross section in nitrogen” value [7] was 156.6 Å² and the “collision cross section in nitrogen” value [2] was 160.4 Å².

In the case of `COc1ccccc1NC(=O)CC(C)=O` [N-(2-Methoxyphenyl)-3-oxobutanamide], the “collision cross section in nitrogen” value [4] is reported as 152.3 Å².

In the case of `CC(=O)CC(=O)Nc1ccccc1C` [N-(2-Methylphenyl)-3-oxobutanamide], the “collision cross section in nitrogen” value [4] is reported as 154.9 Å² and the “collision cross section in nitrogen” value [2] is reported as 142.5 Å².

With `CNC(=O)Nc1ccc(Cl)c(Cl)c1` [N-(3,4-Dichlorophenyl)-N'-methylurea] the “collision cross section in nitrogen” value [2] was 142.4 Å².

In the case of `NC(=O)Nc1ccc(Cl)c(Cl)c1` [N-(3,4-Dichlorophenyl)urea], the “collision cross section in nitrogen” value [2] is reported as 135.7 Å².

In the case of `CCC(=O)Nc1cccc(N)c1` [N-(3-Aminophenyl)propanamide], the “collision cross section in nitrogen” value [1] is reported as 135.8 Å², the “collision cross section in nitrogen” value [3] is reported as 136.5 Å² and the “collision cross section in nitrogen” value [2] is reported as 138.7 Å².

With `C(=CNc1ccccc1)C=Nc1ccccc1` [N-(3-Anilino-2-propenylidene)aniline monohydrochloride] the “collision cross section in nitrogen” value [3] was 159.3 Å² and the “collision cross section in nitrogen” value [2] was 158.6 Å².

With `CC(=O)Nc1ccc(C)c(Cl)c1` [N-(3-Chloro-4-methylphenyl)acetamide] the “collision cross section in nitrogen” value [2] was 138.2 Å².

For `COc1cc2ncnc(Nc3cccc(Cl)c3)c2cc1OC` [N-(3-Chlorophenyl)-6,7-dimethoxyquinazolin-4-amine], the “collision cross section in nitrogen” value [1] was 177.3 Å², the “collision cross section in nitrogen” value [3] was 171 Å² and the “collision cross section in nitrogen” value [2] was 177.1 Å².

For `C=C(C)C(=O)NCCCN(C)C` [N-(3-Dimethylaminopropyl)methacrylamide], the “collision cross section in nitrogen” value [1] was 135.8 Å² and the “collision cross section in nitrogen” value [3] was 137.1 Å².

In the case of `CCOc1ccc(NC(=O)CC(C)=O)cc1` [N-(4-Ethoxyphenyl)-3-oxobutanamide], the “collision cross section in nitrogen” value [1] is reported as 154.6 Å², the “collision cross section in nitrogen” value [4] is reported as 167.3 Å² and the “collision cross section in nitrogen” value [2] is reported as 155.9 Å².

With `COc1ccc(NC(=O)CC(C)=O)cc1` [N-(4-Methoxyphenyl)-3-oxobutanamide] the “collision cross section in nitrogen” value [1] was 146.5 Å², the “collision cross section in nitrogen” value [4] was 160.2 Å² and the “collision cross section in nitrogen” value [2] was 148.5 Å².

With `O=C(NCc1cccnc1)Nc1ccc([N+](=O)[O-])cc1` [N-(4-Nitrophenyl)-N'-(3-pyridinylmethyl)urea] the “collision cross section in nitrogen” value [1] was 174.7 Å², the “collision cross section in nitrogen” value [3] was 174.3 Å² and the “collision cross section in nitrogen” value [2] was 165.3 Å².

With `CC(C)C[C@H](NC(=O)OCC1c2ccccc2-c2ccccc21)C(=O)O` [N-(9-Fluorenylmethoxycarbonyl)-L-leucine] the “collision cross section in nitrogen” value [4] was 184.7 Å².

For `c1ccc(CNc2[nH]cnc3ncnc2-3)cc1` [N-Benzyl-1H-purin-6-amine], the “collision cross section in nitrogen” value [1] was 148.7 Å², the “collision cross section in nitrogen” value [3] was 148.3 Å² and the “collision cross section in nitrogen” value [4] was 162.8 Å². For the same molecule, the “collision cross section in nitrogen” value [2] was 154.5 Å².

For `c1ccc(CNc2ncnc3c2ncn3C2CCCCO2)cc1` (stereo not drawn) [N-Benzyl-9-(tetrahydro-2H-pyran-2-yl)adenine], the “collision cross section in nitrogen” value [1] was 177.9 Å², the “collision cross section in nitrogen” value [3] was 176.5 Å² and the “collision cross section in nitrogen” value [4] was 189.3 Å². For the same molecule, the “collision cross section in nitrogen” value [2] was 185.6 Å².

In the case of `CC(=O)NCc1ccccc1` [N-Benzylacetamide], the “collision cross section in nitrogen” value [2] is reported as 135.1 Å².

For `OCCNCc1ccccc1` [N-Benzylethanolamine], the “collision cross section in nitrogen” value [3] was 134.9 Å².

With `CCCCNC1CC(C)(C)NC(C)(C)C1` [N-Butyl-2,2,6,6-tetramethylpiperidin-4-amine] the “collision cross section in nitrogen” value [1] was 153.3 Å² and the “collision cross section in nitrogen” value [3] was 154 Å².

For `CCCCNS(=O)(=O)c1ccc(C)cc1` [N-Butyl-p-toluenesulfonamide], the “collision cross section in nitrogen” value [4] was 169.3 Å² and the “collision cross section in nitrogen” value [2] was 155 Å².

For `CCCCNS(=O)(=O)c1ccccc1` [N-Butylbenzenesulfonamide], the “collision cross section in nitrogen” value [2] was 148.3 Å².

In the case of `CCCCN(CCO)CCO` [N-Butyldiethanolamine], the “collision cross section in nitrogen” value [1] is reported as 136.3 Å² and the “collision cross section in nitrogen” value [3] is reported as 136.7 Å².

For `CCCC[n+]1ccccc1` [N-Butylpyridinium chloride], the “collision cross section in nitrogen” value [6] was 127.7 Å².

For `N#CCCN(CCO)c1ccccc1` [N-Cyanoethyl-hydroxyethyl aniline], the “collision cross section in nitrogen” value [3] was 142.8 Å².

In the case of `CCCCCCCCCCCC(=O)N(C)CC(=O)O` [N-Dodecanoyl-N-methylglycine], the “collision cross section in nitrogen” value [4] is reported as 175.7 Å² and the “collision cross section in nitrogen” value [2] is reported as 170.1 Å².

With `CCNC(=O)C1CC(C)CCC1C(C)C` (stereo not drawn) [N-Ethyl-2-(isopropyl)-5-methylcyclohexanecarboxamide] the “collision cross section in nitrogen” value [1] was 153.5 Å², the “collision cross section in nitrogen” value [3] was 152.7 Å² and the “collision cross section in nitrogen” value [4] was 171.3 Å². For the same molecule, the “collision cross section in nitrogen” value [2] was 155.6 Å².

In the case of `CCN(CCN)c1cccc(C)c1` [N-Ethyl-N-(3-methylphenyl)ethane-1,2-diamine], the “collision cross section in nitrogen” value [1] is reported as 139.5 Å² and the “collision cross section in nitrogen” value [3] is reported as 140.5 Å².

For `CCNS(=O)(=O)C(F)(F)C(F)(F)C(F)(F)C(F)(F)C(F)(F)C(F)(F)C(F)(F)C(F)(F)F` [N-Ethylperfluorooctane sulfonamide], the “collision cross section in nitrogen” value [2] was 180.4 Å².

In the case of `CCN1C(=O)c2ccccc2C1=O` [N-Ethylphthalimide], the “collision cross section in nitrogen” value [1] is reported as 133.7 Å² and the “collision cross section in nitrogen” value [3] is reported as 135.4 Å².

With `CN(N=O)c1ccccc1` [N-Methyl-N-nitrosoaniline] the “collision cross section in nitrogen” value [1] was 124.5 Å² and the “collision cross section in nitrogen” value [3] was 125.1 Å².

For `CN1C(=O)c2ccccc2C1=O` [N-Methylphthalimide], the “collision cross section in nitrogen” value [1] was 129 Å².

With `OCCN(CCO)c1ccccc1` [N-Phenyl diethanolamine] the “collision cross section in nitrogen” value [1] was 137.7 Å² and the “collision cross section in nitrogen” value [3] was 137.9 Å².

With `Nc1ccc(Nc2ccccc2)cc1` [N-Phenyl-1,4-benzenediamine] the “collision cross section in nitrogen” value [1] was 143.1 Å².

With `c1ccc(Nc2cccc3ccccc23)cc1` [N-Phenyl-1-naphthylamine] the “collision cross section in nitrogen” value [1] was 149.7 Å², the “collision cross section in nitrogen” value [7] was 148.7 Å² and the “collision cross section in nitrogen” value [2] was 152.1 Å².
